Experiments:
[1] = tested on: dualtropic viruses that use CCR5 and CXCR4; details: human PBMC; cited from earlier work
primary HIV-1 isolates = details: isolates P-31, P-41-0, P41-28 and P-51; IsnoR5 clone 2 cells; 1 μg/ml AMD 3100
Experimental: Virus-containing supernatants, normalized to 5 ng/ml HIV-1 Gag p24, were titrated in the IsnoR5 clones in the absence and presence of 1 μg/ml AMD 3100. After 14 days, cell free supernatants tested for viral Gag protein by p24 antigen capture assay. The number of positive wells was used to determine the TCID50 of the original sample.
Virus isolation was performed as previously described (Holtkamp et al., 2000) except that viral replication was detected using an antigen capture enzyme-linked immunosorbent assay (ELISA) for the HIV-1 Gag p24 core protein. Inactivated supernatants (0.2% Tween 20) were titrated on ELISA plates coated with the Gag-specific monoclonal antibody Ag3.0 (hybridoma kindly provided by Jon Allan, Southwest Foundation, San Antonio, Tex., USA). […] Captured protein was detected using pooled sera from HIV-1 positive individuals followed by a goat antihuman immunoglobulin G-peroxidase conjugate (Sigma-Aldrich, Taufkirchen, Germany). Virus levels were calculated by comparison with a standard HIV-1 supernatant of known p24 Gag concentration.
Virus-containing supernatants were serially diluted in media and aliquoted (50 μl per well, six replicates per dilution) into U-well microtiter plates containing 2×10^5 of IsnoR5 clones 1 or 2 or 4.5×10^5 PBMC from healthy blood donors in 150 μl medium. […]

[2] = tested on: CXCR4-tropic virus strains; details: cited from earlier work

## c1cc(CN2CCCNCCNCCCNCC2)ccc1CN1CCCNCCNCCCNCC1 [AMD 3100]
[1]
  Block of dualtropic viruses: efficiently block
Primary HIV-1 isolates
  Replication of isolates in the presence of AMD 3100 (FIG. 5): all were inhibited from replication
[2]
  Infection of cells by CXCR4-tropic virus strains: preventing infection

— US20110033837A1 (priority 2007, published 2011)
